# Results reported in publication PMC2833169, “Anti-malarial activity of a non-piperidine library of next-generation quinoline methanols” (Malaria Journal, 2010).
# Where two headings read alike, the source gives them in different places.
# Key:
# [1] = system: P. falciparum strain TM91C235; assay: labeled hypoxanthine susceptibility assay, P. falciparum TM91C235; assay type: cell-based, Plasmodium falciparum; conditions: for IC90: Plasmodium falciparum, read-out: PF C235 IC90
# Procedure: (§1) The in vitro activities of quinoline methanols against P. falciparum strains W2, D6, TM91C235, and TM90C2A were evaluated using the traditional labeled hypoxanthine assay of Desjardins et al as modified by Milhous et al. These four P. falciparum strains were selected since they have various levels of resistance to conventional anti-malarials.
# [2] = system: P. falciparum strain TM90C2A; assay: labeled hypoxanthine susceptibility assay, P. falciparum TM90C2A; assay type: cell-based, Plasmodium falciparum; conditions: for CSI (C2A/W2): ratio of IC90 C2A to IC90 W2
# Procedure: as §1
# [3] = system: rodent macrophage (RAW) cell line; assay: cells; conditions: read-out: Macrophage IC50
# Procedure: General cytotoxicity was assessed by first determining LC50 's against a rodent macrophage (RAW) cell line using the 3-(4,5-dimethylthiazole-2-yl)-2,5-diphenyltetrazolium bromide (MTT) assay as described in one of our earlier studies. This screen was conducted to identify compounds that may require de-selection due to generalized toxicity. […] In vitro neurocytotoxicity was assessed by determining LC50s against primary mouse neurons using the MTT assay as described previously. Inhibition of the A2A and A1 receptors was determined at 200 nM in duplicate by Caliper Biosciences (Hanover, Maryland).
# P. falciparum strain W2 = assay: labeled hypoxanthine susceptibility assay, P. falciparum W2; assay type: cell-based, Plasmodium falciparum; conditions: for IC90: Plasmodium falciparum
# Procedure: as §1
# P. falciparum strain D6 = assay: labeled hypoxanthine susceptibility assay, P. falciparum D6; assay type: cell-based, Plasmodium falciparum; conditions: for IC90: Plasmodium falciparum
# Procedure: as §1
# [4] = Plasmodium falciparum, TM90C2A, read-out: PF C2A IC90
# [5] = D6, read-out: PF D6 IC90, P. falciparum D6
# [6] = Plasmodium falciparum, TM90C2A, read-out: IC90 PfC2A
SMILES,IC90 [1],"IC90 [2, 4]",CSI (C2A/W2) [2],"IC50 ([3]; Mus musculus, Macrophage)","IC90 (P. falciparum strain W2; W2, read-out: PF W2 IC90)",IC90 (P. falciparum strain D6; [5]),"IC90 [2, 6]",further results
CCCCNCC(O)c1cc(C(F)(F)F)nc2c(C(F)(F)F)cccc12 (racemic) [compound 177000],0.00891 µg/mL,0.0123 µg/mL,7.3,7800 nM,0.00169 µg/mL,0.00658 µg/mL,–,–
CCN(CC)CC(O)c1cc(C(F)(F)F)nc2c(C(F)(F)F)cccc12 (racemic) [WR308254],–,–,–,–,–,–,176 nM,–
CCCCN(CCC#N)CC(O)c1cc(C(F)(F)F)nc2c(C(F)(F)F)cccc12 (racemic) [WR308485],–,–,–,–,–,–,204 nM,–
OC(CNCCC1=CCCCC1)c1cc(C(F)(F)F)nc2c(C(F)(F)F)cccc12 (racemic) [WR308249],–,–,–,–,–,–,160 nM,–
CCCCN(CCCC)CC(O)c1cc(C(F)(F)F)nc2c(C(F)(F)F)cccc12 (racemic) [compound 176990],0.027 µg/mL,0.019 µg/mL,7.9,46000 nM,0.00239 µg/mL,0.011 µg/mL,–,–
Cc1ccc(CNCC(O)c2cc(C(F)(F)F)nc3c(C(F)(F)F)cccc23)cc1 (racemic) [compound 308375],0.0443 µg/mL,0.044 µg/mL,8.4,> 100000 nM,0.00526 µg/mL,0.0392 µg/mL,–,–
OC(CNC1CCCCC1)c1cc(C(F)(F)F)nc2c(C(F)(F)F)cccc12 (racemic) [WR308248],–,–,–,–,–,–,66 nM,–
CC1CCN(CC(C)(C)NCC(O)c2cc(C(F)(F)F)nc3c(C(F)(F)F)cccc23)CC1 (racemic) [WR308592],–,–,–,–,–,–,137 nM,–
Cc1ccc(CNCC(O)c2cc(C(F)(F)F)nc3c(C(F)(F)F)cccc23)cc1 (racemic) [WR308375],–,–,–,–,–,–,103 nM,–
OC(CNCCc1ccccc1)c1cc(C(F)(F)F)nc2c(C(F)(F)F)cccc12 (racemic) [WR308253],–,–,–,–,–,–,99 nM,–
CC1CCN(CC(C)(C)NCC(O)c2cc(C(F)(F)F)nc3c(C(F)(F)F)cccc23)CC1 (racemic) [compound 308592],0.0625 µg/mL,0.0653 µg/mL,14.7,38000 nM,0.00445 µg/mL,0.0284 µg/mL,–,–
CCCNCC(O)c1cc(C(F)(F)F)nc2c(C(F)(F)F)cccc12 (racemic) [WR183544],–,–,–,–,–,–,40 nM,–
CC(C)N(CC(O)c1cc(C(F)(F)F)nc2c(C(F)(F)F)cccc12)C(C)C (racemic) [WR308277],–,–,–,–,–,–,75 nM,–
OC(CNCCC1=CCCCC1)c1cc(C(F)(F)F)nc2c(C(F)(F)F)cccc12 (racemic) [compound 308249],0.0392 µg/mL,0.0693 µg/mL,7.8,27000 nM,0.00885 µg/mL,0.033 µg/mL,–,–
CCN(CC)CC(O)c1cc(C(F)(F)F)nc2c(C(F)(F)F)cccc12 (racemic) [compound 308254],0.0365 µg/mL,0.0669 µg/mL,7.4,5500 nM,0.00901 µg/mL,0.0264 µg/mL,–,–
OC(CNC1CCCCC1)c1cc(C(F)(F)F)nc2c(C(F)(F)F)cccc12 (racemic) [compound 308248],0.0144 µg/mL,0.027 µg/mL,10.8,19800 nM,0.00249 µg/mL,0.00957 µg/mL,–,–
OC(CNc1nc2ccccc2[nH]1)c1cc(C(F)(F)F)nc2c(C(F)(F)F)cccc12 (racemic) [compound 308491],0.0716 µg/mL,0.0835 µg/mL,3.8,15400 nM,0.0219 µg/mL,0.0482 µg/mL,–,–
OC(c1cc(C(F)(F)F)nc2c(C(F)(F)F)cccc12)C1CCCCN1 (stereo not shown) [142490 (MQ)],–,0.071 µg/mL,6.5,7270 nM,–,–,–,"IC90 ([1]; P. falciparum TM91C235): 0.064 µg/mL; IC90 ([2]; Plasmodium falciparum, TM90C2A, read-out: Pf C2A IC90 nM values calculated using MW in Column C): 171 nM; IC90 (P. falciparum strain W2; P. falciparum W2, read-out: PF W2 IC90): 0.011 µg/mL; IC90 (P. falciparum strain D6; P. falciparum D6, read-out: PF D6 IC90): 0.025 µg/mL"
CCCCN(CCCC)CC(O)c1cc(C(F)(F)F)nc2c(C(F)(F)F)cccc12 (racemic) [WR176990],–,–,–,–,–,–,44 nM,–
CCCCN(CCC#N)CC(O)c1cc(C(F)(F)F)nc2c(C(F)(F)F)cccc12 (racemic) [compound 308485],0.059 µg/mL,0.0883 µg/mL,9.5,46600 nM,0.00934 µg/mL,0.0604 µg/mL,–,–
N#CCCN(CC(O)c1cc(C(F)(F)F)nc2c(C(F)(F)F)cccc12)C1CCCCC1 (racemic) [WR308486],–,–,–,–,–,–,144 nM,–
N#CCCN(CC(O)c1cc(C(F)(F)F)nc2c(C(F)(F)F)cccc12)C1CCCCC1 (racemic) [compound 308486],0.0413 µg/mL,0.0662 µg/mL,12.1,18700 nM,0.00549 µg/mL,0.0312 µg/mL,–,–
CCCNCC(O)c1cc(C(F)(F)F)nc2c(C(F)(F)F)cccc12 (racemic) [compound 183544],0.014 µg/mL,0.016 µg/mL,14.5,–,0.0011 µg/mL,0.0067 µg/mL,–,–
OC(CN1CCCC1)c1cc(C(F)(F)F)nc2c(C(F)(F)F)cccc12 (racemic) [compound 308268],–,–,7.7,–,–,–,–,"PF C235 IC90 ([1]; P. falciparum TM91C235): 0.04519 µg/mL; PF C2A IC90 ([2]; P. falciparum TM90C2A): 0.09268 µg/mL; IC90 ([2]; calculated from ng/ml IC90 with MW in Column C, read-out: Pf C2A IC90 nM values calculated using MW in Column C): 245 nM; IC50 ([3]; RAW macrophages, range in brackets): 8500 nM; PF W2 IC90 (P. falciparum strain W2; P. falciparum W2): 0.01205 µg/mL; PF D6 IC90 (P. falciparum strain D6; P. falciparum D6): 0.04702 µg/mL"
OC(CNCCc1ccccc1)c1cc(C(F)(F)F)nc2c(C(F)(F)F)cccc12 (racemic) [compound 308253],0.0229 µg/mL,0.0425 µg/mL,9.0,22500 nM,0.00472 µg/mL,0.0191 µg/mL,–,–
OC(CNc1nc2ccccc2[nH]1)c1cc(C(F)(F)F)nc2c(C(F)(F)F)cccc12 (racemic) [WR308491],–,–,–,–,–,–,190 nM,–
CC(C)N(CC(O)c1cc(C(F)(F)F)nc2c(C(F)(F)F)cccc12)C(C)C (racemic) [compound 308277],0.0209 µg/mL,0.0305 µg/mL,6.7,81200 nM,0.00452 µg/mL,0.0195 µg/mL,–,–
